“And” between values parts separate entries of the source, which are not always exact repeats. Equal values may be shown once. Inconclusive results and toxic doses are left out.
Test system: BDF1 mice, P388 leukemia ip, median survival T/C
Experiment: NCI In Vivo Anticancer Drug Screen. Data for tumor model P388 Leukemia (intraperitoneal) in B6D2F1 (BDF1) mice
Settings: endpoint: median survival time, higher = longer survival
Procedure, shortened: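 Transplantable tumour in mice; compound vs vehicle dosing; survival scored; ratio of treated to control reported.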

[1] = dose: 100.0 mg/kg/injection, schedule: Q04DX003 (ip), vehicle: saline
[2] = dose: 200.0 mg/kg/injection, schedule: Q04DX003 (ip), vehicle: saline
[3] = dose: 400.0 mg/kg/injection, schedule: Q04DX003 (ip), vehicle: saline
[4] = dose: 100.0 mg/kg/injection, schedule: Q04DX003 (ip), vehicle: Klucel (hydroxypropylcellulose) (HPC)
[5] = dose: 200.0 mg/kg/injection, schedule: Q04DX003 (ip), vehicle: Klucel (hydroxypropylcellulose) (HPC)
[6] = dose: 50.0 mg/kg/injection, schedule: Q04DX003 (ip), vehicle: Klucel (hydroxypropylcellulose) (HPC)
[7] = dose: 50.0 mg/kg/injection, schedule: Q01DX009 (ip), vehicle: Klucel (hydroxypropylcellulose) (HPC)
[8] = dose: 100.0 mg/kg/injection, schedule: Q01DX009 (ip), vehicle: Klucel (hydroxypropylcellulose) (HPC)
[9] = dose: 200.0 mg/kg/injection, schedule: Q01DX009 (ip), vehicle: Klucel (hydroxypropylcellulose) (HPC)

`CC(=O)/C=C/c1ccc2c(c1)OCO2` was tested, and the T/C (dose: 25.0 mg/kg/injection, schedule: Q04DX003 (ip), vehicle: saline) was 105 % of control, the T/C (dose: 50.0 mg/kg/injection, schedule: Q04DX003 (ip), vehicle: saline) was 103 % of control and the T/C [1] was 102 % of control and 114 % of control. The T/C [2] was 100 % of control and 108 % of control and 122 % of control, the T/C (dose: 300.0 mg/kg/injection, schedule: Q04DX003 (ip), vehicle: saline) was 100 % of control and 103 % of control and the T/C [3] was 91 % of control and 94 % of control. The T/C (dose: 500.0 mg/kg/injection, schedule: Q04DX003 (ip), vehicle: saline) was 106 % of control and 109 % of control.
In the case of `CCOC(=O)C1(C)C(=O)CC2c3nc4ccccc4cc3CN2C1=O` (configuration not stated), the T/C [4] is reported as 100 % of control, the T/C [5] is reported as 100 % of control and the T/C (dose: 400.0 mg/kg/injection, schedule: Q04DX003 (ip), vehicle: Klucel (hydroxypropylcellulose) (HPC)) is reported as 100 % of control.
With `O=C1OC(COCC#Cc2ccccc2)CN1c1ccccc1` (configuration not stated) the T/C (dose: 100.0 mg/kg/injection, schedule: Q01DX009 (ip), vehicle: saline with Tween-80) was 104 % of control, the T/C [1] was 92 % of control and the T/C (dose: 200.0 mg/kg/injection, schedule: Q01DX009 (ip), vehicle: saline with Tween-80) was 100 % of control. The T/C [2] was 107 % of control, the T/C (dose: 400.0 mg/kg/injection, schedule: Q01DX009 (ip), vehicle: saline with Tween-80) was 100 % of control and the T/C [3] was 92 % of control.
For `O=C1c2ccccc2CCC12OC2c1ccccc1[N+](=O)[O-]` (configuration not stated), the T/C [6] was 110 % of control, the T/C [4] was 100 % of control and the T/C [5] was 110 % of control.
`CC(C)=CCC/C(C)=C/CO` was tested, and the T/C (dose: 15.6 mg/kg/injection, schedule: Q01DX010 (ip), vehicle: saline) was 100 % of control, the T/C (dose: 31.3 mg/kg/injection, schedule: Q01DX010 (ip), vehicle: saline) was 100 % of control and the T/C (dose: 62.5 mg/kg/injection, schedule: Q01DX010 (ip), vehicle: saline) was 113 % of control. The T/C (dose: 125.0 mg/kg/injection, schedule: Q01DX010 (ip), vehicle: saline) was 118 % of control.
With `Cc1cccc(N=P(c2ccccc2)(c2ccccc2)c2ccccc2)c1` the T/C [7] was 109 % of control, the T/C [6] was 109 % of control and the T/C [8] was 118 % of control. For the same compound, the T/C [4] was 100 % of control, the T/C (dose: 133.0 mg/kg/injection, schedule: Q01DX009 (ip), vehicle: Klucel (hydroxypropylcellulose) (HPC)) was 117 % of control and the T/C [9] was 108 % of control. The T/C [5] was 95 % of control.
With `CCCCCCCCCCC[CH2][Hg][CH2]CCCCCCCCCCC` the T/C [4] was 91 % of control and the T/C [5] was 100 % of control.
With `CC(=O)c1ccc[n+](Cc2c(Cl)cccc2Cl)c1` the T/C (dose: 3.13 mg/kg/injection, schedule: Q01DX009 (ip), vehicle: saline) was 93 % of control, the T/C (dose: 6.25 mg/kg/injection, schedule: Q01DX009 (ip), vehicle: saline) was 92 % of control and the T/C (dose: 12.5 mg/kg/injection, schedule: Q01DX009 (ip), vehicle: saline) was 92 % of control.
`COC(=O)C1C(O)C(C)C(O)C(C)/C=C\C=C(C)C(=O)Nc2c(C)c(OC(C)=O)c3c(c2O)C(=O)C(C)=C2OCOC(=C23)C(C)=CC(C)(O)C(O)C(C)C1O` (configuration not stated) was tested, and the T/C [8] was 115 % of control, the T/C [9] was 108 % of control and 115 % of control and the T/C (dose: 400.0 mg/kg/injection, schedule: Q01DX009 (ip), vehicle: Klucel (hydroxypropylcellulose) (HPC)) was 106 % of control.
In the case of `O=C1c2ccccc2C(=O)c2c(NCCOCCO)ccc(NCCOCCO)c21`, the T/C (dose: 25.0 mg/kg/injection, schedule: Q01DX005 (ip), vehicle: saline with Tween-80) is reported as 98 % of control, the T/C (dose: 50.0 mg/kg/injection, schedule: Q01DX005 (ip), vehicle: saline with Tween-80) is reported as 94 % of control and the T/C (dose: 100.0 mg/kg/injection, schedule: Q01DX005 (ip), vehicle: saline with Tween-80) is reported as 90 % of control. For the same compound, the T/C (dose: 200.0 mg/kg/injection, schedule: Q01DX005 (ip), vehicle: saline with Tween-80) was 102 % of control.
In the case of `CS(=O)(=O)CCN(N=O)C(=N)N[N+](=O)[O-]`, the T/C (dose: 19.0 mg/kg/injection, schedule: Q04DX003 (ip), vehicle: saline with Tween-80) is reported as 113 % of control and the T/C (dose: 150.0 mg/kg/injection, schedule: Q04DX003 (ip), vehicle: saline with Tween-80) is reported as 150 % of control.
With `CC(=O)Nc1cccc(Cl)c1C` the T/C (dose: 8.25 mg/kg/injection, schedule: Q01DX009 (ip), vehicle: saline with Tween-80) was 100 % of control, the T/C (dose: 12.4 mg/kg/injection, schedule: Q01DX009 (ip), vehicle: saline with Tween-80) was 104 % of control and the T/C (dose: 18.7 mg/kg/injection, schedule: Q01DX009 (ip), vehicle: saline with Tween-80) was 100 % of control. The T/C (dose: 28.2 mg/kg/injection, schedule: Q01DX009 (ip), vehicle: saline with Tween-80) was 100 % of control, the T/C [7] was 100 % of control and the T/C (dose: 50.0 mg/kg/injection, schedule: Q01DX009 (ip), vehicle: saline with Tween-80) was 100 % of control. For the same compound, the T/C [8] was 100 % of control, the T/C (dose: 100.0 mg/kg/injection, schedule: Q04DX003 (ip), vehicle: saline with Tween-80) was 95 % of control and the T/C [9] was 86 % of control. For the same compound, the T/C (dose: 200.0 mg/kg/injection, schedule: Q04DX003 (ip), vehicle: saline with Tween-80) was 100 % of control and the T/C (dose: 400.0 mg/kg/injection, schedule: Q04DX003 (ip), vehicle: saline with Tween-80) was 100 % of control.
For `O=C1/C(=C\c2ccc(Cl)cc2)SC(=S)N1c1ccccc1`, the T/C (dose: 37.5 mg/kg/injection, schedule: Q01DX009 (ip), vehicle: saline with Tween-80) was 88 % of control, the T/C (dose: 75.0 mg/kg/injection, schedule: Q01DX009 (ip), vehicle: saline with Tween-80) was 97 % of control and the T/C (dose: 150.0 mg/kg/injection, schedule: Q01DX009 (ip), vehicle: saline with Tween-80) was 108 % of control.
`C[P+](C)(c1ccccc1)c1ccccc1` was tested, and the T/C (dose: 6.25 mg/kg/injection, schedule: Q04DX003 (ip), vehicle: saline with Tween-80) was 100 % of control and the T/C (dose: 12.5 mg/kg/injection, schedule: Q04DX003 (ip), vehicle: saline with Tween-80) was 104 % of control.
With `CC1(C)N=C(N)N=C(N)N1c1cccc(OCCOc2cccc(NC(=O)CBr)c2)c1` the T/C (dose: 5.0 mg/kg/injection, schedule: Q01DX009 (ip), vehicle: saline) was 90 % of control and 100 % of control, the T/C (dose: 5.0 mg/kg/injection, schedule: Q04DX003 (ip), vehicle: saline) was 100 % of control and the T/C (dose: 10.0 mg/kg/injection, schedule: Q01DX009 (ip), vehicle: saline) was 95 % of control and 100 % of control. For the same compound, the T/C (dose: 10.0 mg/kg/injection, schedule: Q04DX003 (ip), vehicle: saline) was 100 % of control, the T/C (dose: 13.0 mg/kg/injection, schedule: Q01DX009 (ip), vehicle: saline) was 104 % of control and 110 % of control and the T/C (dose: 20.0 mg/kg/injection, schedule: Q04DX003 (ip), vehicle: saline) was 100 % of control. For the same compound, the T/C (dose: 45.0 mg/kg/injection, schedule: Q01DX009 (ip), vehicle: saline) was 100 % of control.
With `CC1CCC2(C)CCC3(C)C(=CCC4C5(C)CCC(O)C(C)(C)C5CCC43C)C2C1C` (configuration not stated) the T/C (dose: 100.0 mg/kg/injection, schedule: Q01DX009 (ip), vehicle: water) was 90 % of control, the T/C (dose: 100.0 mg/kg/injection, schedule: Q04DX003 (ip), vehicle: water) was 90 % of control and the T/C (dose: 200.0 mg/kg/injection, schedule: Q04DX003 (ip), vehicle: water) was 90 % of control. For the same compound, the T/C (dose: 400.0 mg/kg/injection, schedule: Q01DX009 (ip), vehicle: water) was 90 % of control and the T/C (dose: 400.0 mg/kg/injection, schedule: Q04DX003 (ip), vehicle: water) was 90 % of control.

Source: PubChem BioAssay AID328 (DTP/NCI, 2004)
